From article PMC546277 (Arthritis Research & Therapy, 2004) come the findings set out here.

The IC50 is the concentration that inhibits the measured activity by half.

For the experiment, the target named is IGFBP-3 (recombinant human IGF-binding protein 3, rhIGFBP-3) (Homo sapiens, UniProt P17936).
Sequence of IGFBP-3 (recombinant human IGF-binding protein 3, rhIGFBP-3) (P17936 28-291): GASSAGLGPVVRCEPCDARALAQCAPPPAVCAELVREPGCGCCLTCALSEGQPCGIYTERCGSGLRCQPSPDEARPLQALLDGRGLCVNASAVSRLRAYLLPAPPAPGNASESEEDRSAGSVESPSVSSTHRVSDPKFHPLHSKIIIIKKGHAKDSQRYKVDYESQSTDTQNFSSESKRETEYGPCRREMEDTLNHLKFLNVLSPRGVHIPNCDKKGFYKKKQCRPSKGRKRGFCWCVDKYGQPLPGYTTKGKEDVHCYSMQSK
Sequence of IGFBP-3 (recombinant human IGF-binding protein 3, rhIGFBP-3) (P05019 49-118 partner): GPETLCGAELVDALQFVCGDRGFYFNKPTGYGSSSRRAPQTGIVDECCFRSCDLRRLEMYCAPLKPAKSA

For `O=C(O)c1cc2cc(O)c(O)cc2c(C(=O)c2ccc(O)c(O)c2)n1` [NBI-31772, 1-(3,4-dihydroxybenzoyl)-3-hydroxycarbonyl-6,7-dihydroxyisoquinoline], the IC50 came out at 2 nM.
